This is an account of results in patent publication US6525057B2, “Sustained release ranolazine formulations” (CV Therapeutics, Inc., priority 1998, dated 2003).

A short description of the data set: Example 8: Day 5 pharmacokinetics of racemic ranolazine and enantiomers, SR 1500 and 2000 mg bid. The data set is classed as in vivo, human. The following applies: for Tmax / Cmax / AUC: male, human, plasma, oral; for AUC: read-out: AUC96-108h. How it is done: This Example evaluated the safety and tolerability of administering racemic ranolazine free base formulations as in Example 2D. The individual and mean concentrations of racemic ranolazine and its enantiomers, (R)-(+)-N-(2,6-dimethylphenyl)-4-[2-hydroxy-3-(2-methoxyphenoxy)-propyl]-1-piperazineacetamide, (S)-(−)-N-(2,6-dimethylphenyl)-4-[2-hydroxy-3-(2-methoxyphenoxy)-propyl]-1-piperazineacetamide in human plasma were also determined.
The study was performed with ascending doses of sustained release ranolazine dosage forms. Before and at intervals during and after the dosing period, blood samples were drawn for ranolazine assay and blood pressure, heart rate, ECG and symptoms were monitored throughout. Data summaries were reviewed after each phase before proceeding to the next phase of the study.
Eight subjects, all healthy male volunteers aged between 18 and 40 entered and all completed the study and were available for pharmacokinetic and safety analysis. The subjects were each given doses of the various types of ranolazine free base in the form of sustained release tablets including 500 mg and 750 mg tablets or with matching placebo as necessary (2×750 mg size plus 1×500 mg size) to make unit oral doses of 1500 and 2000 mg.
In each phase: one dose bid for four days with a single dose on Day 5. On day 5 each volunteer underwent a full pharmacokinetic profile including supine and erect blood pressure (BP) and heart rate, ECG data, adverse events, clinical chemistry and hematology results, urinalysis results.
These tests were made using two-sided t-tests with estimates of variability from the ANOVA models. Steady state was also assessed by comparing means for C48h, C72h and C96h using a mixed effects ANOVA model and untransformed and log, transformed data. For hemodynamic parameters, Day 1 pre-dose treatment means and Day 5 data were compared across treatments via two-sided t-tests using estimates of variability from mixed effects ANOVA models. Ninety and 95% confidence intervals were calculated for the treatment comparisons. No adjustments were made for multiple comparisons.

[1] abbreviates: Day 5, 1500 mg SR bid (racemic, Example 2D).
Where [2] appears, read: Day 5, 2000 mg SR bid (racemic, Example 2D).

For orientation: Tmax means the time at which the peak concentration occurs. What is called Cmax is the maximum level reached in the sampled fluid or tissue.

Where two headings read alike, the source gives them in different places. Where only a bound is given, the exact number is not on record here.

`COc1ccccc1OCC(O)CN1CCN(CC(=O)Nc2c(C)cccc2C)CC1` (racemic) [ranolazine, (±)-N-(2,6-dimethylphenyl)-4-[2-hydroxy-3-(2-methoxyphenoxy)-propyl]-1-piperazineacetamide]: under setting [1], the Cave was 4126 ± 1995 ng/mL, the Cmin came to 2932 ± 1918 ng/mL, the Degree of fluctuation is 0.664 and the concentration peaked (Cmax) at 5280 ± 2430 ng/mL. Moreover, the AUC under setting [1] is 49500 ng·h/mL. Under setting [2], this compound had a Cave of 5705 ± 2153 ng/mL, a Cmin of 4149 ± 2228 ng/mL, a Degree of fluctuation of 0.591 and a Cmax of 7280 ± 2700 ng/mL. The AUC under setting [2] was found to be 68500 ng·h/mL. In addition, the “Steady-state plasma levels of ranolazine free base attained by” value (SR bid dosing) is at most 4 days. For the same compound, the Tmax (1500 mg, Day 5, 1500 mg SR bid (racemic, Example 2D), read-out: Median tmax) is 4 h. The Tmax (2000 mg, Day 5, 2000 mg SR bid (racemic, Example 2D), read-out: Median tmax) worked out at 4 h. In addition, the Tmax (2000 mg, within the dose interval, SR 1500 and 2000 mg bid, read-out: tmax values post-dose) lay within 1 to 6 h.
